# Species on record: Rattus norvegicus
# Assay: DrugMatrix - Regimen: Daily Repeat
# Format: toxicity, organism-based, Sprague-Dawley
# Design: regimen Daily Repeat, gender Male, age 6-8 weeks
# Conditions: in vivo, po, route oral GAVAGE, vehicle .5 % CMC; for BASOPHIL / EOSINOPHIL / ERYTHROCYTE COUNT / HEMATOCRIT / HEMOGLOBIN / LEUKOCYTE COUNT / LYMPHOCYTE / MEAN CORPUSCULAR HEMOGLOBIN / MEAN CORPUSCULAR HEMOGLOBIN CONCENTRATION / MEAN CORPUSCULAR VOLUME / MONOCYTE / NEUTROPHIL / PLATELET COUNT: tissue Blood; for ALANINE AMINOTRANSFERASE / ALBUMIN / ALKALINE PHOSPHATASE / ASPARTATE AMINOTRANSFERASE / BLOOD UREA NITROGEN / CHLORIDE / CHOLESTEROL / CREATINE PHOSPHOKINASE / CREATININE / GLUCOSE / PHOSPHORUS / POTASSIUM / SODIUM / TOTAL BILIRUBIN / TOTAL PROTEIN: tissue Plasma
# [1] = 0.09 mg/kg, 120 h, dose level Low, time 5 day
# [2] = 0.9 mg/kg, 72 h, dose level High, time 3 day
# [3] = 0.9 mg/kg, 120 h, dose level High, time 5 day
smiles,measurement,setting,value
CCN1C[C@]2(COC)[C@H](O)C[C@H](OC)[C@@]34[C@@H]5C[C@@]6(O)[C@H](OC(=O)c7ccccc7)[C@@H]5[C@@](OC(C)=O)([C@@H]([C@H](OC)[C@H]23)[C@@H]14)[C@@H](O)[C@@H]6OC [ACONITINE],BASOPHIL,[1],0.73%
same,EOSINOPHIL,[1],0.3%
same,ERYTHROCYTE COUNT,[1],7.49 x10E6/uL
same,HEMATOCRIT,[1],47.87%
same,HEMOGLOBIN,[1],14.97 G/DL
same,LEUKOCYTE COUNT,[1],9.72 x10E3/uL
same,LYMPHOCYTE,[1],82.5%
same,MEAN CORPUSCULAR HEMOGLOBIN,[1],20.07 pg
same,MEAN CORPUSCULAR HEMOGLOBIN CONCENTRATION,[1],31.37 G/DL
same,MEAN CORPUSCULAR VOLUME,[1],63.9 fL
same,MONOCYTE,[1],2%
same,NEUTROPHIL,[1],13.77%
same,PLATELET COUNT,[1],1482.33 x10E3/uL
same,ALANINE AMINOTRANSFERASE,[1],38.67 u/L
same,ALBUMIN,[1],3.83 G/DL
same,ALKALINE PHOSPHATASE,[1],409.67 u/L
same,ASPARTATE AMINOTRANSFERASE,[1],66.33 u/L
same,BLOOD UREA NITROGEN,[1],13.33 mg/dL
same,CHLORIDE,[1],107 MEQ/L
same,CHOLESTEROL,[1],62.67 mg/dL
same,CREATINE PHOSPHOKINASE,[1],135.67 u/L
same,CREATININE,[1],0.67 mg/dL
same,GLUCOSE,[1],154.33 mg/dL
same,PHOSPHORUS,[1],12.77 mg/dL
same,POTASSIUM,[1],7.43 MEQ/L
same,SODIUM,[1],151.33 MEQ/L
same,TOTAL BILIRUBIN,[1],0.5 mg/dL
same,TOTAL PROTEIN,[1],6.93 G/DL
same,BASOPHIL,[2],0.57%
same,EOSINOPHIL,[2],0.37%
same,ERYTHROCYTE COUNT,[2],6.91 x10E6/uL
same,HEMATOCRIT,[2],44.07%
same,HEMOGLOBIN,[2],13.83 G/DL
same,LEUKOCYTE COUNT,[2],11.28 x10E3/uL
same,LYMPHOCYTE,[2],85.87%
same,MEAN CORPUSCULAR HEMOGLOBIN,[2],20.03 pg
same,MEAN CORPUSCULAR HEMOGLOBIN CONCENTRATION,[2],31.4 G/DL
same,MEAN CORPUSCULAR VOLUME,[2],63.73 fL
same,MONOCYTE,[2],1.8%
same,NEUTROPHIL,[2],10.03%
same,PLATELET COUNT,[2],1654.67 x10E3/uL
same,ALANINE AMINOTRANSFERASE,[2],36 u/L
same,ALBUMIN,[2],3.73 G/DL
same,ALKALINE PHOSPHATASE,[2],364.67 u/L
same,ASPARTATE AMINOTRANSFERASE,[2],63.33 u/L
same,BLOOD UREA NITROGEN,[2],14 mg/dL
same,CHLORIDE,[2],97.33 MEQ/L
same,CHOLESTEROL,[2],62.67 mg/dL
same,CREATINE PHOSPHOKINASE,[2],126.33 u/L
same,CREATININE,[2],0.5 mg/dL
same,GLUCOSE,[2],187 mg/dL
same,PHOSPHORUS,[2],11.57 mg/dL
same,POTASSIUM,[2],6.97 MEQ/L
same,SODIUM,[2],138.67 MEQ/L
same,TOTAL BILIRUBIN,[2],0.4 mg/dL
same,TOTAL PROTEIN,[2],6.6 G/DL
same,BASOPHIL,[3],0.47%
same,EOSINOPHIL,[3],0.3%
same,ERYTHROCYTE COUNT,[3],7.11 x10E6/uL
same,HEMATOCRIT,[3],44.93%
same,HEMOGLOBIN,[3],13.73 G/DL
same,LEUKOCYTE COUNT,[3],9.26 x10E3/uL
same,LYMPHOCYTE,[3],88.1%
same,MEAN CORPUSCULAR HEMOGLOBIN,[3],19.37 pg
same,MEAN CORPUSCULAR HEMOGLOBIN CONCENTRATION,[3],30.6 G/DL
same,MEAN CORPUSCULAR VOLUME,[3],63.23 fL
same,MONOCYTE,[3],1.83%
same,NEUTROPHIL,[3],9.33%
same,PLATELET COUNT,[3],1288 x10E3/uL
same,ALANINE AMINOTRANSFERASE,[3],40.33 u/L
same,ALBUMIN,[3],3.67 G/DL
same,ALKALINE PHOSPHATASE,[3],314 u/L
same,ASPARTATE AMINOTRANSFERASE,[3],66 u/L
same,BLOOD UREA NITROGEN,[3],12.33 mg/dL
same,CHLORIDE,[3],108.33 MEQ/L
same,CHOLESTEROL,[3],66 mg/dL
same,CREATINE PHOSPHOKINASE,[3],136 u/L
same,CREATININE,[3],0.63 mg/dL
same,GLUCOSE,[3],161 mg/dL
same,PHOSPHORUS,[3],12.37 mg/dL
same,POTASSIUM,[3],7.3 MEQ/L
same,SODIUM,[3],151.67 MEQ/L
same,TOTAL BILIRUBIN,[3],0.33 mg/dL
same,TOTAL PROTEIN,[3],6.57 G/DL

# Source: ChEMBL document CHEMBL3885881, “DrugMatrix”
